# Test results from patent US7888118B2, “2-{2-[5-(3-chlorophenyl)]furanyl}-4,5-bis(4-methoxyphenyl)imidazole and methods for inducing differentiation of myoblasts or muscle fibers into neuron cells” (Industry-Academic Cooperation Foundation, Yonsei University, priority 2005, dated 2011).
# What was measured:
# Murine myoblasts (C2C12) = experiment: Neurite outgrowth / neuron differentiation of myoblasts observed by light microscope; assay type: cell-based
# Experimental: Murine myoblasts (C2C12) are usually cultured in RPMI 1640 or DMEM supplemented with 10% FBS, 50 units/mL penicillin and 50 μg/mL of streptomycin at 37° C. with 5% CO2 in air atmosphere.
# For the small molecule screen, the cultured C2C12 cells are seeded in a 96-well plate at a density of 10^3 cells per well in culture media. After 24 h, the culture media are replaced with differentiation media (RPMI 1640 or DMEM containing 1% FBS, 50 units/mL penicillin and 50 μg/mL of streptomycin). Test compounds are then added at a final concentration of 5-10 μM. After 96 h incubation, morphological changes of cells are observed by a light microscope (Nikon Eclipse TE2000) to detect neurite outgrowth characteristic of neuron differentiation. To ascertain neuron differentiation, the cells are washed with PBS and loaded FM1-43 (a final concentration: 2 μM, Molecular Probes) dissolved in Ringer buffer containing 100 mM KCl. […] Fluorescent intensity of the treated cells (excitation wavelength: 470 nm, emission wavelength: 540 nm) is read on a fluorescent microplate reader (SpectraMax GeminiEM, Molecular Devices).
# An imidazole library of about 300 compounds is added at a final concentration of 5-10 μM. […] Fluorescent intensity (excitation wavelength: 470 nm, emission wavelength: 540 nm) is read on a fluorescent microplate reader (SpectraMax GeminiEM, Molecular Devices).
# [1] = system: human single muscle fibers; experiment: Differentiation of isolated human muscle fibers into neuron cells; assay type: cell-based
# Experimental: Single fibers of human skeletal muscle are obtained as described previously (In Vitro Cell Dev Biol Anim. 2002, 38, 66). A sample of skeletal muscle is dissected from the abductor hallucis muscle. The sample is collected and transported in single fiber culture media (Ham's F-10 medium supplemented with 10% FBS, 2% chick embryo extract and 1.5 μg/mL amphotericin B). The muscle sample is incubated in 10 mL single fiber culture media containing 0.1% collagenase in a 50 mL Falcon™ tube for 1 h at 37° C. Bundles of muscle fibers are carefully dissected using a scalpel. The bundles are laid in a Petri dish containing 10 mL single fiber culture media with 0.1% collagenase at 37° C. for 5 h. Isolation of single muscle fibers is carried out by repeatedly triturating the muscle sample with a wide-mouthed Pasteur pipette. Isolated muscle fibers that have not undergone hypercontraction (which renders them unsuitable for plating in culture dishes) are placed in matrigel-coated 6-well plates at a density of three fibers per well. Fibers are plated in one drop of single fiber culture media and allowed to attach for 6 h and then 1 mL of media is added to the culture. After 24 h, the media are changed to single fiber culture media without amphotericin B.
# After 5 days, populations of satellite muscle precursor cells migrate from the fiber and begin to proliferate. […]
smiles,measurement,setting,value
"COc1ccc(-c2nc(-c3ccc(-c4cccc(Cl)c4)o3)[nH]c2-c2ccc(OC)cc2)cc1 [Neurodazine 1, 2-{2-[5-(3-chlorophenyl)]furanyl}-4,5-bis(4-methoxyphenyl)imidazole]",differentiation of myoblasts into neuron cells (FIG. 2),Murine myoblasts (C2C12),Differentiated neuron cells from myoblasts
same,differentiation of muscle fibers into neuron cells (FIG. 3),[1],Differentiated neuron cells from muscle fibers
